Source: PubChem BioAssay (NCI)
Where “and” joins values, the source holds several entries; their conditions need not be identical. Identical values can stand only once.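 48-hour exposure; five concentrations; linearly interpolated endpoints. GI50: concentration for 50% inhibition of growth. TGI marks complete inhibition of growth.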

Tests used:
Experiment in all cases: NCI tumour cell line growth inhibition, 48 h
HT29 colon = system: HT29 colon
UO-31 renal = system: UO-31 renal
NCI-H460 lung = system: NCI-H460 lung
SF-295 CNS = system: SF-295 CNS
HOP-92 NSCLC = system: HOP-92 NSCLC
K-562 leukemia = system: K-562 leukemia
786-0 renal = system: 786-0 renal
KM12 colon = system: KM12 colon
MOLT-4 leukemia = system: MOLT-4 leukemia
A498 renal = system: A498 renal

SMILES	GI50 (HT29 colon) [µM]	TGI (HT29 colon) [µM]	GI50 (UO-31 renal) [µM]	TGI (UO-31 renal)	GI50 (NCI-H460 lung) [µM]	TGI (NCI-H460 lung)	GI50 (SF-295 CNS) [µM]	TGI (SF-295 CNS)	GI50 (HOP-92 NSCLC)	TGI (HOP-92 NSCLC) [µM]	GI50 (K-562 leukemia) [µM]	TGI (K-562 leukemia) [µM]	GI50 (786-0 renal) [µM]	TGI (786-0 renal) [µM]	GI50 (KM12 colon) [µM]	TGI (KM12 colon) [µM]	GI50 (MOLT-4 leukemia) [µM]	TGI (MOLT-4 leukemia) [µM]	TGI (A498 renal) [µM]	GI50 (A498 renal) [µM]
CC(C)(C)c1nc(-c2cccc(NS(=O)(=O)c3c(F)cccc3F)c2F)c(-c2ccnc(N)n2)s1	< 0.01	> 100	0.46	> 100 µM	30.4	> 100 µM	55.6	> 100 µM	35.5 µM	> 100	25.6	> 100	48.9	> 100	23.8	> 92.4	26.5	> 100		
COC(=O)N/N=C(\C)C(CN(C)C)C(c1ccccc1)c1c(O)c2ccccc2oc1=O (stereo not drawn)		> 100		> 100 µM				> 100 µM		> 100		> 100		> 100		> 100		> 100	> 100	
CCOC(=O)C1=C(C(=O)OCC)C2(c3ccccc3)N(O1)c1ccccc1C2(C)C (stereo not drawn)		> 100		67.1 µM		> 100 µM		> 100 µM				> 100		> 100		> 100		> 100	> 100	
COc1cc(-c2cc3ncccc3c3[nH]c(=O)c4cccnc4c23)cc(OC)c1OC	0.397	> 100	1.09	> 100 µM	0.433	> 100 µM	0.379	25.4 µM	12.2 µM	> 100	0.392	> 100	0.722	> 100	0.651	> 100	0.782	28.8		
O=C(NC(=O)c1cn(CCN2CCN(C(=O)NCCCCCCNC(=O)N3CCN(CCn4cc(C(=O)NC(=O)OCc5ccccc5)c(=O)[nH]c4=O)CC3)CC2)c(=O)[nH]c1=O)OCc1ccccc1		> 100		> 100 µM		> 100 µM		> 100 µM		> 100		> 100		> 100				> 100		
O=C(Oc1ccccc1)C(Br)C(Br)c1ccccc1 (stereo not drawn)			1.72	3.34 µM	14.5	29.8 µM	4.88	18.3 µM	2.73 µM	7.52	1.95	9	4.59	16.8	1.93	3.75	3.09	11.9	22.4	10.5
O=C(O)Cn1ccc2ccccc21	> 100	> 100	> 100	> 100 µM	> 100	> 100 µM	> 100	> 100 µM		> 100			> 100	> 100	> 100	> 100			> 100	> 100
Cc1cc2c(cc1CO)N1Cc3cc(C)c(CO)cc3N(C2)C1		> 100				> 100 µM		> 100 µM				> 100		> 100		> 100		> 100		
COC(=O)CC(C(C(C)=O)C(=O)OCc1ccccc1)N1C(=O)OC(c2ccccc2)C1c1ccccc1 (stereo not drawn)		> 100				> 100 µM		75.4 µM and > 100 µM	84.5 µM and 39.8 µM	> 100		> 100		> 100		> 100		> 100		
CC1=C(C(=O)Nc2ccccc2)C(c2cc(Cl)cc(Cl)c2)C(C(=O)Nc2ccccc2)=C(C)N1		21.4		26.9 µM		62.8 µM		28.8 µM				13.6		22.9		16.8		18.1	43.1	
c1ccc(C2CC(c3ccc4ccccc4c3)=Nc3ccccc3S2)cc1 (stereo not drawn)		30.8		25.1 µM		29.1 µM		31.7 µM				59.3		30.2		38.8		> 100	31.1	
O=C1Nc2ccccc2/C1=C/c1cn(CC(O)Cn2cc(/C=C3\C(=O)Nc4ccccc43)c3ccccc32)c2ccccc12 (stereo not drawn)	1.42	3.52	1.29	2.94 µM	0.488	1.88 µM	1.66	3.28 µM	1.8 µM	4.15	1.19	3.56	1.67	3.21			2.58	7.42	4.08	2.18
CCCCN1C(=O)/C(=c2\sc3n(c2=O)C2C(NN=3)N(CC)C(=O)N2CC)c2ccccc21 (stereo not drawn)							0.456	2.26 µM	1.07 µM	4.58	0.542	> 100	1.14	4.18			2.73	> 100	0.721	0.169
CCN(CC)c1ccc2nc3ccc(N=Nc4ccc(O)cc4)cc3[n+](-c3ccccc3)c2c1	3.15	> 100			3.41	> 100 µM	2.86	> 100 µM	> 100 µM	> 100			26.6	> 100	3.7	16.4			> 100	> 100
NC(=S)N/N=C1/CN(c2ccc(Cl)c(Cl)c2)CC(=O)C1c1nc2ccccc2s1 (stereo not drawn)		> 100		> 100 µM		> 100 µM		> 100 µM		> 100		> 100		> 100		> 100			> 100	
c1cc[c]([Sn]([O]c2cccc3cccnc23)([O]c2cccc3cccnc23)[c]2ccccc2)cc1					1.36	3.66 µM	1.72	3.22 µM			0.221	0.631	0.57	4.74			0.203	0.429		
COc1cc(-c2nccc3cc4c(cc23)OCO4)cc(OC)c1OC	2.33	> 100	6.99	> 100 µM	3.83	> 100 µM	2.03	14.2 µM	11.5 µM	> 100			7.65	> 100	2.27	> 100			15.2	2.55

SMILES	GI50 (HT29 colon) [µM]	TGI (HT29 colon) [µM]	GI50 (UO-31 renal) [µM]	TGI (UO-31 renal)	GI50 (NCI-H460 lung) [µM]	TGI (NCI-H460 lung)	GI50 (SF-295 CNS) [µM]	TGI (SF-295 CNS)	GI50 (HOP-92 NSCLC)	TGI (HOP-92 NSCLC) [µM]	GI50 (K-562 leukemia) [µM]	TGI (K-562 leukemia) [µM]	GI50 (786-0 renal) [µM]	TGI (786-0 renal) [µM]	GI50 (KM12 colon) [µM]	TGI (KM12 colon) [µM]	GI50 (MOLT-4 leukemia) [µM]	TGI (MOLT-4 leukemia) [µM]	TGI (A498 renal) [µM]	GI50 (A498 renal) [µM]
CCN(CC)c1ccc(/C=N/NC(=O)CSc2nc3ccccc3c(=O)n2Cc2ccc(S(N)(=O)=O)cc2)c(O)c1	3.01	> 100	2.89	> 100 µM	0.425	> 100 µM	1.47	> 100 µM			0.592	> 100	1.84	> 100	0.569	> 100	0.372	> 100		
Cc1ccccc1N=Nc1c(-c2ccccc2)nn(C(=O)CC(=O)Nc2cccc(Cl)c2)c1-c1ccccc1		23.4		> 31.6 µM		> 31.6 µM		> 31.6 µM		> 100		> 31.6		> 31.6				22.7	29.9	
Cc1cccc(Nc2cc(Cl)nc(SCC(=O)O)n2)c1C		> 100				> 100 µM		> 100 µM		> 100		> 100		> 100		> 100		> 100	> 100	
C/C(=N\NC(N)=S)c1sc(-n2nc(-c3ccccc3)cc2-c2ccccc2)nc1C		> 100		> 100 µM		> 100 µM		> 100 µM		> 100				> 100		> 100		> 100	> 100	
Cc1cn2c(/C=N/N=C(N)N)c(-c3ccncc3)nc2s1	20.1	46.8	18.9	43.7 µM	16.8	30.4 µM	14.3	29.2 µM	13.4 µM	26.9	15.4	34	15.8	29.3	5.63	19.6	7.74	32.2		
COc1ccc(-c2nc(N)c(C#N)c3c2CCOc2c-3ccc3ccccc23)cc1	52.7	> 100	49.9	> 100 µM	16.3	> 100 µM			11.8 µM	37.9	> 100	> 100	17.2	48.3	42.7	> 100	> 100	> 100		
CCN(CC)c1nc(NC2CCCCC2)c2nc(N(CC)CC)nc(NC3CCCCC3)c2n1		> 100				> 100 µM		> 100 µM		> 100		> 100		> 100		> 100		> 100	> 100	
CNCCCNc1c2ccccc2nc2cccc([N+](=O)[O-])c12		0.0185	0.0158	0.0241 µM and 0.0682 µM		0.00221 µM and 0.0103 µM		0.0279 µM		0.00423				0.0247		0.0677			0.00751	
CC12OC(C(=O)C13CCC3)C1C(=O)c3ccc4c(ccc5ccccc54)c3C(=O)C12 (stereo not drawn)	3.85	19.2	25.7	> 100 µM	12	35.9 µM		0.0612 µM	5.02 µM	21.2	3.27	16	3.65	8.82			3.67	53.6	29.6	8.74
O=c1c2cccnc2ncn1CCCN1CCCC1		> 100		> 100 µM		> 100 µM		> 100 µM		> 100		> 100		> 100		> 100		> 100		
CCC[CH2][Sn]([CH2]CCC)([CH2]CCC)[O]C(=O)C(OC)c1ccccc1 (stereo not drawn)	0.0507	0.168	0.113	0.234 µM	0.0835	0.217 µM	0.13	0.259 µM	0.0274 µM	0.175			0.142	0.288	0.052	0.178		0.835	0.263	0.123
C[C@H](NC(=O)c1c(C(F)F)nn(C)c1Oc1cccc(C(F)(F)F)c1)c1ccc(C(=O)O)cc1	> 100	> 100	> 100	> 100 µM	> 100	> 100 µM	> 100	> 100 µM	6.94 µM	> 100			> 100	> 100	> 100	> 100	> 100	> 100	> 100	> 100
O=C(NCc1ccc2ccc3cccnc3c2n1)c1ccc[n+](Cc2ccccc2)c1		> 100		> 100 µM		> 100 µM		> 100 µM		> 100		> 100		> 100		> 100		> 100		
Cc1ccc(O)c(NC2=C(Cl)C(=O)N(Cc3ccccc3)C2=O)c1	33.3	> 100	16	41 µM	28.6	> 100 µM	26.2	71.2 µM			12.4	59.6	29.6	86.1	40.7	> 100	1.55	74.2		
COc1cc2c(c(OC)c1OC)-c1ccc(SC)c(=O)cc1C(CC(=O)Oc1cccc(F)c1)C2 (stereo not drawn)		0.557		> 100 µM		4.62 µM		> 100 µM		> 81.3		> 52.4		> 100		1.14		> 55.2		
C=Cc1c(C)c2cc3[nH]c(cc4nc(cc5nc(cc1[nH]2)C(C)=C5CCC(=O)N(CC)CC)C(CCC(=O)N(CC)CC)=C4C)c(C)c3C=C		> 100		> 100 µM		> 100 µM		> 100 µM		> 100		> 100		> 100		> 100		> 100		
COc1cc2nc(-c3cccc4cccnc34)nc(NC3CCN(Cc4ccccc4)CC3)c2cc1OC	0.419	1.85	1.43	2.88 µM	0.351	1.23 µM	1.44	3.09 µM	1.59 µM	3.36			1.2	2.69			0.325	1.81	3.39	1.83
